Source: PubChem BioAssay AID2060488 (Molecular Pharmacology Branch, DTP, NCI, 2025)

Tested on: 966289-007-R4-J1-PDC complex spheroid viability
Experiment: Anticancer human tumor 966289-007-R4-J1-PDC patient-derived pancreatic adenocarcinoma cell line growth inhibition [GQUAD]
Settings: for IC50: curve of first compound; for viability, T/C: stronger effect = lower value
Outline: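 Multi-cell-type spheroids of tumor cells with HUVEC and mesenchymal stem cells, treated with drug combinations. Concentrations descend in half-log steps from near clinical Cmax, or from 10 microM where Cmax is unknown; viability read-out.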

[1] = second compound 0.0316 µM, first compound 0.0316 µM
[2] = second compound 0.0316 µM, first compound 0.316 µM
[3] = second compound 0.1 µM, first compound 0.0316 µM
[4] = second compound 0.1 µM, first compound 0.316 µM
[5] = second compound 0.316 µM, first compound 0.0316 µM
[6] = second compound 0.316 µM, first compound 0.316 µM
[7] = second compound 1 µM, first compound 0.0316 µM
[8] = second compound 1 µM, first compound 0.316 µM
[9] = second compound 3.16 µM, first compound 0.0316 µM
[10] = second compound 3.16 µM, first compound 0.316 µM
[11] = second compound 10 µM, first compound 0.0316 µM
[12] = second compound 10 µM, first compound 0.316 µM
[13] = second compound 0.0316 µM, first compound 0.000999 µM
[14] = second compound 0.0316 µM, first compound 0.00316 µM
[15] = second compound 0.0316 µM, first compound 0.00999 µM
[16] = second compound 0.0316 µM, first compound 0.0999 µM
[17] = second compound 0.1 µM, first compound 0.000999 µM
[18] = second compound 0.1 µM, first compound 0.00316 µM
[19] = second compound 0.1 µM, first compound 0.00999 µM
[20] = second compound 0.1 µM, first compound 0.0999 µM
[21] = second compound 0.316 µM, first compound 0.000999 µM
[22] = second compound 0.316 µM, first compound 0.00316 µM
[23] = second compound 0.316 µM, first compound 0.00999 µM
[24] = second compound 0.316 µM, first compound 0.0999 µM
[25] = second compound 1 µM, first compound 0.000999 µM
[26] = second compound 1 µM, first compound 0.00316 µM
[27] = second compound 1 µM, first compound 0.00999 µM
[28] = second compound 1 µM, first compound 0.0999 µM
[29] = second compound 3.16 µM, first compound 0.000999 µM
[30] = second compound 3.16 µM, first compound 0.00316 µM
[31] = second compound 3.16 µM, first compound 0.00999 µM
[32] = second compound 3.16 µM, first compound 0.0999 µM
[33] = second compound 10 µM, first compound 0.000999 µM
[34] = second compound 10 µM, first compound 0.00316 µM
[35] = second compound 10 µM, first compound 0.00999 µM
[36] = second compound 10 µM, first compound 0.0999 µM
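Also: spheroids exposed to the agents for seven days before readout.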
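For viability, T/C in this document: percent viability relative to DMSO vehicle control wells taken as 100%.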

## C=CC(=O)N1CCN(c2nc(=O)n(-c3c(C)ccnc3C(C)C)c3nc(-c4c(O)cccc4F)c(F)cc23)C(C)C1 (stereo unspecified) + Cc1[nH]c2ccc(F)cc2c1-c1nc2c3cccnc3c3ncccc3c2[nH]1
Second compound 0.0316 µM
  IC50: > 10000 nM
Second compound 0.1 µM
  IC50: > 10000 nM
Second compound 0.316 µM
  IC50: > 10000 nM
Second compound 1 µM
  IC50: > 10000 nM
Second compound 3.16 µM
  IC50: > 10000 nM
Second compound 10 µM
  IC50: > 10000 nM
[1]
  viability, T/C: 99.9%
Second compound 0.0316 µM, first compound 0.1 µM
  viability, T/C: 94.1%
[2]
  viability, T/C: 103%
Second compound 0.0316 µM, first compound 1 µM
  viability, T/C: 93.8%
Second compound 0.0316 µM, first compound 3.16 µM
  viability, T/C: 105%
Second compound 0.0316 µM, first compound 10 µM
  viability, T/C: 107%
[3]
  viability, T/C: 105%
Second compound 0.1 µM, first compound 0.1 µM
  viability, T/C: 96.6%
[4]
  viability, T/C: 103%
Second compound 0.1 µM, first compound 1 µM
  viability, T/C: 95.2%
Second compound 0.1 µM, first compound 3.16 µM
  viability, T/C: 102%
Second compound 0.1 µM, first compound 10 µM
  viability, T/C: 114%
[5]
  viability, T/C: 97.4%
Second compound 0.316 µM, first compound 0.1 µM
  viability, T/C: 99.7%
[6]
  viability, T/C: 90.3%
Second compound 0.316 µM, first compound 1 µM
  viability, T/C: 106%
Second compound 0.316 µM, first compound 3.16 µM
  viability, T/C: 104%
Second compound 0.316 µM, first compound 10 µM
  viability, T/C: 111%
[7]
  viability, T/C: 95.4%
Second compound 1 µM, first compound 0.1 µM
  viability, T/C: 103%
[8]
  viability, T/C: 105%
Second compound 1 µM, first compound 1 µM
  viability, T/C: 98.4%
Second compound 1 µM, first compound 3.16 µM
  viability, T/C: 86.1%
Second compound 1 µM, first compound 10 µM
  viability, T/C: 109%
[9]
  viability, T/C: 101%
Second compound 3.16 µM, first compound 0.1 µM
  viability, T/C: 101%
[10]
  viability, T/C: 111%
Second compound 3.16 µM, first compound 1 µM
  viability, T/C: 100%
Second compound 3.16 µM, first compound 3.16 µM
  viability, T/C: 108%
Second compound 3.16 µM, first compound 10 µM
  viability, T/C: 101%
[11]
  viability, T/C: 99.2%
Second compound 10 µM, first compound 0.1 µM
  viability, T/C: 98%
[12]
  viability, T/C: 104%
Second compound 10 µM, first compound 1 µM
  viability, T/C: 101%
Second compound 10 µM, first compound 3.16 µM
  viability, T/C: 94.4%
Second compound 10 µM, first compound 10 µM
  viability, T/C: 76.8%

## CC[C@@]1(O)C(=O)OCc2c1cc1n(c2=O)Cc2cc3c(CN(C)C)c(O)ccc3nc2-1 + Cc1[nH]c2ccc(F)cc2c1-c1nc2c3cccnc3c3ncccc3c2[nH]1
Second compound 0.0316 µM
  IC50: 44.6 nM
Second compound 0.1 µM
  IC50: 48 nM
Second compound 0.316 µM
  IC50: 50.2 nM
Second compound 1 µM
  IC50: 49.2 nM
Second compound 3.16 µM
  IC50: 36.9 nM
Second compound 10 µM
  IC50: 25.9 nM
[13]
  viability, T/C: 102%
[14]
  viability, T/C: 94.6%
[15]
  viability, T/C: 90.2%
[1]
  viability, T/C: 70.8%
[16]
  viability, T/C: 0.88%
[2]
  viability, T/C: 0.48%
[17]
  viability, T/C: 99.3%
[18]
  viability, T/C: 101%
[19]
  viability, T/C: 101%
[3]
  viability, T/C: 78.2%
[20]
  viability, T/C: 0.6%
[4]
  viability, T/C: 0.5%
[21]
  viability, T/C: 94.1%
[22]
  viability, T/C: 105%
[23]
  viability, T/C: 110%
[5]
  viability, T/C: 83.1%
[24]
  viability, T/C: 0.88%
[6]
  viability, T/C: 0.49%
[25]
  viability, T/C: 92.4%
[26]
  viability, T/C: 95%
[27]
  viability, T/C: 106%
[7]
  viability, T/C: 80.9%
[28]
  viability, T/C: 0.78%
[8]
  viability, T/C: 0.62%
[29]
  viability, T/C: 105%
[30]
  viability, T/C: 113%
[31]
  viability, T/C: 115%
[9]
  viability, T/C: 57.7%
[32]
  viability, T/C: 0.9%
[10]
  viability, T/C: 0.56%
[33]
  viability, T/C: 105%
[34]
  viability, T/C: 106%
[35]
  viability, T/C: 108%
[11]
  viability, T/C: 38.2%
[36]
  viability, T/C: 0.71%
[12]
  viability, T/C: 0.5%

## CCc1c2c(nc3ccc(O)cc13)-c1cc3c(c(=O)n1C2)COC(=O)[C@]3(O)CC + Cc1[nH]c2ccc(F)cc2c1-c1nc2c3cccnc3c3ncccc3c2[nH]1
Second compound 0.0316 µM
  IC50: < 0.999 nM
Second compound 0.1 µM
  IC50: < 0.999 nM
Second compound 0.316 µM
  IC50: < 0.999 nM
Second compound 1 µM
  IC50: < 0.999 nM
Second compound 3.16 µM
  IC50: < 0.999 nM
Second compound 10 µM
  IC50: < 0.999 nM
[13]
  viability, T/C: 20.7%
[14]
  viability, T/C: 0.77%
[15]
  viability, T/C: 0.82%
[1]
  viability, T/C: 0.49%
[16]
  viability, T/C: 0.89%
[2]
  viability, T/C: 0.5%
[17]
  viability, T/C: 17.3%
[18]
  viability, T/C: 0.75%
[19]
  viability, T/C: 0.91%
[3]
  viability, T/C: 0.51%
[20]
  viability, T/C: 0.52%
[4]
  viability, T/C: 0.36%
[21]
  viability, T/C: 15.4%
[22]
  viability, T/C: 0.9%
[23]
  viability, T/C: 0.74%
[5]
  viability, T/C: 0.45%
[24]
  viability, T/C: 0.43%
[6]
  viability, T/C: 0.36%
[25]
  viability, T/C: 14.3%
[26]
  viability, T/C: 1.12%
[27]
  viability, T/C: 0.71%
[7]
  viability, T/C: 0.56%
[28]
  viability, T/C: 0.34%
[8]
  viability, T/C: 0.36%
[29]
  viability, T/C: 9.81%
[30]
  viability, T/C: 1.09%
[31]
  viability, T/C: 0.59%
[9]
  viability, T/C: 0.67%
[32]
  viability, T/C: 0.58%
[10]
  viability, T/C: 0.4%
[33]
  viability, T/C: 5.35%
[34]
  viability, T/C: 1.12%
[35]
  viability, T/C: 0.71%
[11]
  viability, T/C: 0.43%
[36]
  viability, T/C: 0.31%
[12]
  viability, T/C: 0.38%
